Experimental data reported in PubChem BioAssay (NCI).
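Grown in 96-well plates, cells were treated for 48 hours with each compound at five concentrations. Insufficient inhibition: endpoint recorded as highest concentration tested. GI50 marks 50% less growth. TGI marks complete inhibition of growth.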

Tests used:
Assay in all cases: NCI anticancer screen, dose series, 48 h
A549 NSCLC = test system: A549 NSCLC
HT29 colon = test system: HT29 colon
MALME-3M melanoma = test system: MALME-3M melanoma
NCI-H522 lung = test system: NCI-H522 lung
OVCAR-3 ovarian = test system: OVCAR-3 ovarian
SK-MEL-5 melanoma = test system: SK-MEL-5 melanoma
UACC-62 melanoma = test system: UACC-62 melanoma
NCI-H226 lung = test system: NCI-H226 lung

Row | Structure (SMILES) | TGI (A549 NSCLC) [µM] | TGI (HT29 colon) [µM] | TGI (MALME-3M melanoma) [µM] | TGI (NCI-H522 lung) [µM] | TGI (OVCAR-3 ovarian) [µM] | TGI (SK-MEL-5 melanoma) [µM] | TGI (UACC-62 melanoma) [µM] | GI50 (A549 NSCLC) [µM] | GI50 (HT29 colon) [µM] | GI50 (MALME-3M melanoma) [µM] | GI50 (NCI-H226 lung) [µM] | TGI (NCI-H226 lung) [µM] | GI50 (NCI-H522 lung) [µM] | GI50 (OVCAR-3 ovarian) [µM] | GI50 (SK-MEL-5 melanoma) [µM] | GI50 (UACC-62 melanoma) [µM]
1 | Cc1cc(C)c(S(=O)(=O)ONC(=O)OC(C)(C)C)c(C)c1 | > 100 | > 100 | > 100 | > 100 | > 100 | > 100 | > 100 |  |  |  |  |  |  |  |  | 
2 | CCC[CH2][Sn]([CH2]CCC)([O]C(=O)C1CCC(=O)N1)[O]C(=O)C1CCC(=O)N1 (stereo unspecified) | 3.64 | 2.06 | 0.243 | 0.11 | 0.663 | 1.65 | 0.331 | 2.01 | 0.588 | 0.0783 | 1.43 | 2.81 | 0.0263 | 0.218 | 0.461 | 0.154
3 | c1ccc(COCC2OC3c4ccccc4COC3C2OCc2ccccc2)cc1 (stereo unspecified) | > 100 | > 100 | > 100 |  | > 100 | > 100 | > 100 |  |  |  |  | > 100 |  |  |  | 
4 | COC(OC)[C@@H](C)[C@H](O)[C@](C)(O)C1OC(C)(C)OC(C(C)C=C(C)C)C1C (stereo partly specified) | > 100 | > 100 | > 100 | > 100 | > 100 | > 100 | > 100 |  |  |  |  | > 100 |  |  |  | 
5 | CC(=O)[O-].O=C([CH-]C(=O)c1ccccc1)c1ccccc1.O=C([CH-]C(=O)c1ccccc1)c1ccccc1.[Y+3] | 34.3 | 20.7 | 39.5 | 6.06 | 15.8 | 14.2 | 17.8 | 10.3 | 7.69 | 8.02 | 2.56 | 9.69 | 1.58 | 3.12 | 3.56 | 3.8
6 | OC(c1ccccn1)C1CNc2ccccc21 (stereo unspecified) | > 100 | > 100 | > 100 | > 100 | > 100 | > 100 | > 100 |  |  |  |  | > 100 |  |  |  | 
7 | Cc1ccc(C)c(NC(=O)CCc2nc(=S)[nH][nH]2)c1 | > 100 | > 100 | > 100 | > 100 | > 100 | > 100 | > 100 |  |  |  |  | > 100 |  |  |  | 
8 | COc1cc(-c2cc(=O)c3cc(C)c(C)c(C(=O)O)c3o2)cc(OC)c1OC | > 100 | > 100 | > 100 | > 100 | > 100 | > 100 | > 100 |  |  |  |  |  |  |  |  | 
9 | CCCCCCCCCCCCN(O)C(=O)c1ccccc1 | > 100 | > 100 | 60.7 | > 100 | > 100 |  | > 100 |  |  |  |  |  |  |  |  | 
10 | O=C1C2c3[nH]c4ccccc4c3[C@@H]3CCCCC3C2C(=O)N1c1ccccc1 (stereo partly specified) | > 100 | 37 | 38.4 |  | 30.1 | 32.1 | 38.5 |  |  |  |  | 42.2 |  |  |  | 
11 | Cc1ccc2[nH]c3c(ncc4[nH]c5ccccc5c43)c2c1 | 32.7 | 24 | 33.7 | 39.6 | > 10 |  | 31.7 |  |  |  |  | 30.4 |  |  |  | 
12 | CCC(C(=O)[O-])C(=O)[O-].CCC(C(=O)[O-])C(=O)[O-].N.N.NCCCCCCN.[Pt+4].[Pt+4] | 24.1 | 19.4 | 1.9 |  | 16.3 | 9.46 | 14.6 | 10.8 | 9.01 | 1 | 10 | 20.2 |  | 9 | 3.35 | 7.5
13 | CC1=C(c2cc(C(=O)Nc3cccc(C(F)(F)F)c3)ncn2)Sc2ccccc2N1 | > 100 | > 100 | > 100 | > 100 | > 100 | > 100 | > 100 |  |  |  |  | > 100 |  |  |  | 
14 | O=C(NNC(=O)c1cc(/C=C/c2cccc([N+](=O)[O-])c2)[nH]c(=S)n1)Nc1ccc(Cl)cc1 | > 100 | > 100 | > 100 | 81.8 | > 100 | > 100 | > 100 |  |  |  |  | > 100 |  |  |  | 
15 | COC12CC(=O)C(C(C)=O)=C(O)C1(C)c1c(OC(C)=O)c(C)c(O)c(C(C)=O)c1O2 (stereo unspecified) | > 100 | 78.7 | 60.2 |  | 69.9 |  | 23.4 |  |  |  |  | 65.7 |  |  |  | 
16 | O=C([O-])c1ccc(C(=O)[O-])cc1.O=C([O-])c1ccc(C(=O)[O-])cc1.[Mo+2].[Mo+2] | > 100 | > 100 | > 100 |  | > 100 | > 100 | > 100 | > 100 | > 100 | > 100 | > 100 | > 100 |  | > 100 | > 100 | > 100
17 | CCOC(=O)NC(=O)c1cn(CCN2CCN(C(=O)CCCCCCCCCCNc3ncnc4nc[nH]c34)CC2)c(=O)[nH]c1=O | > 100 | > 100 | > 100 |  | > 100 | > 100 | > 100 |  |  |  |  | > 100 |  |  |  | 
18 | CN(C)c1n/c(=N/c2ncn[nH]2)ss1 | > 100 | > 100 | > 100 | > 100 |  | > 100 | > 100 |  |  |  |  | > 100 |  |  |  | 
